Source: publication PMC8890542, “Discovery of novel paeonol-based derivatives against skin inflammation in vitro and in vivo” (Journal of Enzyme Inhibition and Medicinal Chemistry, 2022)

Assays:
[1] = Cell viability assay (MTT), LO2; type: cell-based; conditions: human, LO2 cells, read-out: Cytotoxicity IC50 with LO2
[2] = system: LPS-induced nitric oxide production in RAW264.7 cells; test: LPS-induced NO production, Griess Reagent assay; type: cell-based, mouse; conditions: for IC50 / inhibition at 10 µM: Mus musculus; for IC50: LPS (0.5 μg/mL) 24 h; for inhibition at 10 µM: compounds 10 μM, 1 h, then LPS (0.5 μg/mL) 24 h, read-out: Inhibition rate±SD (%) against NO production; for Inhibitory activity on LPS-induced NO secretion, in words: 10 µM
Method: RAW264.7 cells (7 × 10^4 cells/well) were seeded into 48-well plate and used for experiments after 24 h. […] After 24 h collect cell supernatant, NO production was measured using Griess Reagent assay (Beyotime). Griess reagent were mixed at a ratio of 1:1, and reacted at room temperature for 15 min. Measurement of absorbance at […] with enzyme reader. At least three independent experiments were performed for the determination of IC50 values, which were shown as mean ± SD. All experimental data were analysed by using GraphPad Prism software, version 8.0 (GraphPad Inc.).

[3] = Cell viability assay (MTT), RAW264.7; type: cell-based, mouse; conditions: mouse, RAW264.7 cells, read-out: Cytotoxicity IC50 with RAW264.7
Method: RAW264.7 cells (1 × 10^4 cells/well) were seeded into 96-well plate and used for experiments after 24 h. Compounds (4 µM, 20 µM and 100 µM) treated cell for 24 h. Forty microliters of MTT solution (5 mg/mL, Sigma-Aldrich) was then added and incubated for an additional 4 h. After 4 h, cell culture supernatants were removed and DMSO (150 µL) was added into per well for dissolving the resulting crystals. Shaking about 1 0 ∼ 15 min and the absorbance at 492 nm was measured by a microplate reader (MQX200, Bio-Tek, Winooski, VT). At least three independent experiments were performed for the determination of IC50 values, which were shown as mean ± SD. All experimental data were analysed by using GraphPad Prism software, version 8.0 (GraphPad Inc.).

Row | Structure (SMILES) | IC50 [2] | melting point | IC50 at 24 h [1] | inhibition at 10 µM [2] | IC50 at 24 h [3] | Inhibitory activity on LPS-induced NO secretion, in words [2]
1 | CNC(=O)Nc1cc(C(C)=O)c(O)cc1OC [Compound A1, 1–(5-acetyl-4-hydroxy-2-methoxyphenyl)-3-methylurea] | > 10 µM | 211 to 213 °C | > 100 µM | 20.1 ± 6.12% | > 100 µM | –
2 | CCN(CC)C(=O)Nc1cc(C(C)=O)c(O)cc1OC [Compound A2, 3–(5-acetyl-4-hydroxy-2-methoxyphenyl)-1,1-diethylurea] | > 10 µM | 132 to 134 °C | > 100 µM | 30.2 ± 4.89% | > 100 µM | –
3 | COc1cc(O)c(C(C)=O)cc1NC(=O)N(C(C)C)C(C)C [Compound A3, 3–(5-acetyl-4-hydroxy-2-methoxyphenyl)-1,1-diisopropylurea] | > 10 µM | 148 to 149 °C | > 100 µM | 15.4 ± 3.15% | > 100 µM | –
4 | COc1cc(O)c(C(C)=O)cc1NC(=O)NC(C)(C)C [Compound A8, 1–(5-acetyl-4-hydroxy-2-methoxyphenyl)-3-(tert-butyl) urea] | > 10 µM | – | > 100 µM | 12.3 ± 4.12% | > 100 µM | –
5 | COc1cc(O)c(C(C)=O)cc1NC(=O)NC1CC1 [Compound A9, 1–(5-acetyl-4-hydroxy-2-methoxyphenyl)-3-cyclopropylurea] | > 10 µM | 191 to 192 °C | > 100 µM | 41 ± 3.15% | > 100 µM | –
6 | COc1cc(O)c(C(C)=O)cc1NC(=O)N1CCN(C)CC1 [Compound A10, N-(5-acetyl-4-hydroxy-2-methoxyphenyl)-4-methylpiperazine-1-carboxamide] | > 10 µM | 141 to 142 °C | > 100 µM | 26 ± 5.12% | > 100 µM | –
7 | COc1cc(O)c(C(C)=O)cc1NC(=O)N1CCCC1 [Compound A12, N-(5-acetyl-4-hydroxy-2-methoxyphenyl) pyrrolidine-1-carboxamide] | > 10 µM | 118 to 120 °C | > 100 µM | 32.1 ± 4.17% | > 100 µM | –
8 | COc1cc(O)c(C(C)=O)cc1NC(=O)N1CCSC1 [Compound A14, N-(5-acetyl-4-hydroxy-2-methoxyphenyl) thiazolidine-3-carboxamide] | > 10 µM | 172 to 174 °C | > 100 µM | 24.1 ± 5.16% | > 100 µM | –
9 | COc1cc(O)c(C(C)=O)cc1NC(=O)Nc1ccccc1 [Compound B1, 1–(5-acetyl-4-hydroxy-2-methoxyphenyl)-3-phenylurea] | 9.45 µM | – | > 100 µM | 51 ± 3.25% | > 100 µM | –
10 | COc1cc(O)c(C(C)=O)cc1NC(=O)Nc1cccc(C)c1 [Compound B2, 1–(5-acetyl-4-hydroxy-2-methoxyphenyl)-3-(m-tolyl) urea] | > 10 µM | 209 to 210 °C | > 100 µM | 48.7 ± 5.49% | > 100 µM | –
11 | COc1cc(O)c(C(C)=O)cc1NC(=O)Nc1ccccc1C [Compound B3, 1–(5-acetyl-4-hydroxy-2-methoxyphenyl)-3-(o-tolyl) urea] | > 10 µM | 238 to 239 °C | > 100 µM | 47.2 ± 6.12% | > 100 µM | weak to moderate inhibitory activity
12 | COc1cc(O)c(C(C)=O)cc1NC(=O)Nc1ccc(C)cc1 [Compound B4, 1–(5-acetyl-4-hydroxy-2-methoxyphenyl)-3-(p-tolyl) urea] | 8.76 µM | 218 to 219 °C | > 100 µM | 53.9 ± 4.12% | > 100 µM | moderate inhibitory activity
13 | COc1cc(O)c(C(C)=O)cc1NC(=O)Nc1cccc(F)c1 [Compound B5, 1–(5-acetyl-4-hydroxy-2-methoxyphenyl)-3–(3-fluorophenyl) urea] | 6.22 µM | – | > 100 µM | 63 ± 3.87% | > 100 µM | –
14 | COc1cccc(NC(=O)Nc2cc(C(C)=O)c(O)cc2OC)c1 [Compound B8, 1–(5-acetyl-4-hydroxy-2-methoxyphenyl)-3–(3-methoxyphenyl) urea] | 4.7 µM | – | > 100 µM | 74.7 ± 6.15% | > 100 µM | –
15 | COc1cc(O)c(C(C)=O)cc1NC(=O)Nc1ccc(C(F)(F)F)cc1 [Compound B11, 1–(5-acetyl-4-hydroxy-2-methoxyphenyl)-3–(4-(trifluoromethyl)phenyl) urea] | 5.08 µM | – | > 100 µM | 60.9 ± 4.12% | > 100 µM | –
16 | COc1cc(O)c(C(C)=O)cc1NC(=O)Nc1ccc(OC(F)(F)F)cc1 [Compound B13, 1–(5-acetyl-4-hydroxy-2-methoxyphenyl)-3–(4-(trifluoromethoxy)phenyl) urea] | > 10 µM | 209 to 210 °C | > 100 µM | 25.1 ± 4.18% | > 100 µM | –
17 | COc1ccccc1CNC(=O)Nc1cc(C(C)=O)c(O)cc1OC [Compound C6, 1–(5-acetyl-4-hydroxy-2-methoxyphenyl)-3–(2-methoxybenzyl) urea] | > 10 µM | – | > 100 µM | 8.12 ± 6.12% | > 100 µM | –

Second part, led by results:

Row | IC50 [2] | melting point | Structure (SMILES) | IC50 at 24 h [1] | inhibition at 10 µM [2] | IC50 at 24 h [3] | Inhibitory activity on LPS-induced NO secretion, in words [2]
18 | > 10 µM | – | Cc1ccc(-c2cc(C(F)(F)F)nn2-c2ccc(S(N)(=O)=O)cc2)cc1 [Cel, Celecoxib, reference compound] | > 100 µM | 30.1 ± 2.33% | > 100 µM | –
19 | > 10 µM | 176 to 177 °C | CONC(=O)Nc1cc(C(C)=O)c(O)cc1OC [Compound A4, 1–(5-acetyl-4-hydroxy-2-methoxyphenyl)-3-methoxyurea] | > 100 µM | 15.2 ± 4.18% | > 100 µM | –
20 | > 10 µM | 232 to 234 °C | COc1cc(O)c(C(C)=O)cc1NC(=O)NCC(F)(F)F [Compound A5, 1–(5-acetyl-4-hydroxy-2-methoxyphenyl)-3–(2,2,2-trifluoroethyl) urea] | > 100 µM | 23.1 ± 3.25% | > 100 µM | –
21 | > 10 µM | 211 to 212 °C | CCNC(=O)Nc1cc(C(C)=O)c(O)cc1OC [Compound A6, 1–(5-acetyl-4-hydroxy-2-methoxyphenyl)-3-ethylurea] | > 100 µM | 16.2 ± 6.01% | > 100 µM | –
22 | > 10 µM | 176 to 177 °C | COc1cc(O)c(C(C)=O)cc1NC(=O)N(C)C [Compound A7, 3–(5-acetyl-4-hydroxy-2-methoxyphenyl)-1,1-dimethylurea] | > 100 µM | 33.7 ± 5.02% | > 100 µM | –
23 | > 10 µM | 220 to 221 °C | COc1cc(O)c(C(C)=O)cc1NC(=O)N1CCOCC1 [Compound A11, N-(5-acetyl-4-hydroxy-2-methoxyphenyl) morpholine-4-carboxamide] | > 100 µM | 29.8 ± 3.74% | > 100 µM | –
24 | > 10 µM | 125 to 126 °C | CCN1CCN(C(=O)Nc2cc(C(C)=O)c(O)cc2OC)CC1 [Compound A13, N-(5-acetyl-4-hydroxy-2-methoxyphenyl)-4-ethylpiperazine-1-carboxamide] | > 100 µM | 35.1 ± 2.87% | > 100 µM | –
25 | 6.88 µM | 228 to 229 °C | COc1ccccc1NC(=O)Nc1cc(C(C)=O)c(O)cc1OC [Compound B9, 1–(5-acetyl-4-hydroxy-2-methoxyphenyl)-3–(2-methoxyphenyl) urea] | > 100 µM | 56.7 ± 4.28% | > 100 µM | weak to moderate inhibitory activity
26 | > 10 µM | – | COc1cc(O)c(C(C)=O)cc1NC(=O)NCc1ccccc1Cl [Compound C1, 1–(5-acetyl-4-hydroxy-2-methoxyphenyl)-3–(2-chlorobenzyl) urea] | > 100 µM | 33.7 ± 6.15% | > 100 µM | –
27 | > 10 µM | – | COc1cc(O)c(C(C)=O)cc1NC(=O)NCCc1ccccc1 [Compound D1, 1–(5-acetyl-4-hydroxy-2-methoxyphenyl)-3-phenethylurea] | > 100 µM | 15.3 ± 5.12% | > 100 µM | –
28 | > 10 µM | – | COc1cc(O)c(C(C)=O)cc1NC(=O)NCCc1ccccc1F [Compound D4, 1–(5-acetyl-4-hydroxy-2-methoxyphenyl)-3–(2-fluorophenethyl)urea] | > 100 µM | 17.7 ± 2.15% | > 100 µM | –
